US20060069132A1, “Azolecarboxamide herbicides” (priority 2004, published 2006)

Columns and labels:
[1] = system: bermudagrass; assay: Test C pre-/postemergence herbicide test; assay type: in vivo, Cynodon dactylon; settings: preemergence; for Plant response rating (0 = no effect, 100 = complete control), Bermudagrass: 125 g ai/ha
Summary of the method: (§1)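 Seeds were planted and sprayed preemergence with test chemicals in a non-phytotoxic solvent mixture containing surfactant; postemergence treatments went onto plants 2 to 18 cm tall (1- to 4-leaf stage). After 12 to 14 days in a greenhouse, injury was rated visually against untreated controls on a 0–100 scale.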

[2] = system: cocklebur; assay: Test C pre-/postemergence herbicide test; assay type: in vivo, Xanthium strumarium; settings: preemergence; for Plant response rating (0 = no effect, 100 = complete control), Cocklebur: 125 g ai/ha
Summary of the method: as §1

[3] = system: corn; assay: Test C pre-/postemergence herbicide test; assay type: in vivo, Zea mays; settings: preemergence; for Plant response rating (0 = no effect, 100 = complete control), Corn: 125 g ai/ha
Summary of the method: as §1

[4] = system: woolly cupgrass; assay: Test C pre-/postemergence herbicide test; assay type: in vivo, Eriochloa villosa; settings: preemergence; for Plant response rating (0 = no effect, 100 = complete control), Cupgrass, Woolly: 125 g ai/ha
Summary of the method: as §1

[5] = system: giant foxtail; assay: Test C pre-/postemergence herbicide test; assay type: in vivo, Setaria faberi; settings: preemergence; for Plant response rating (0 = no effect, 100 = complete control), Foxtail, Giant: 125 g ai/ha
Summary of the method: as §1

[6] = system: goosegrass; assay: Test C pre-/postemergence herbicide test; assay type: in vivo, Eleusine indica; settings: preemergence; for Plant response rating (0 = no effect, 100 = complete control), Goosegrass: 125 g ai/ha
Summary of the method: as §1

[7] = system: kochia; assay: Test C pre-/postemergence herbicide test; assay type: in vivo, Kochia scoparia; settings: preemergence; for Plant response rating (0 = no effect, 100 = complete control), Kochia: 125 g ai/ha
Summary of the method: as §1

[8] = system: morningglory; assay: Test C pre-/postemergence herbicide test; assay type: in vivo, Ipomoea coccinea; design: key to Plant response rating, Morningglory: 0 = no effect, 100 = complete control; settings: preemergence; for Plant response rating (0 = no effect, 100 = complete control), Morningglory: 125 g ai/ha
Summary of the method: as §1

[9] = system: yellow nutsedge; assay: Test C pre-/postemergence herbicide test; assay type: in vivo, Cyperus esculentus; settings: preemergence; for Plant response rating (0 = no effect, 100 = complete control), Nutsedge, Yellow: 125 g ai/ha
Summary of the method: as §1

[10] = system: soybean; assay: Test C pre-/postemergence herbicide test; assay type: in vivo, Glycine max; settings: preemergence; for Plant response rating (0 = no effect, 100 = complete control), Soybean: 125 g ai/ha
Summary of the method: as §1

[11] = system: velvetleaf; assay: Test C pre-/postemergence herbicide test; assay type: in vivo, Abutilon theophrasti; settings: preemergence; for Plant response rating (0 = no effect, 100 = complete control), Velvetleaf: 125 g ai/ha
Summary of the method: as §1

[12] = system: barnyardgrass; assay: Test C flooded paddy test; assay type: in vivo, Echinochloa crus-galli; settings: for Plant response rating, Barnyardgrass: 500 g ai/ha, visual rating after 12 to 14 days
Summary of the method: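 Postemergence sprays applied to plants 2 to 18 cm tall (1- to 4-leaf stage); paddy species grown to 2-leaf stage under flooding. After 12 to 14 days in greenhouse, visual rating versus untreated controls on 0–100 scale (0 no effect, 100 complete control).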

[13] = 62 g ai/ha, scale 0 to 100, 0 no effect, 100 complete control
[14] = 500 g ai/ha, scale 0 to 100 (0 no effect, 100 complete control), visual, 12 to 14 days
[15] = 62 g ai/ha, scale 0 to 100 (0 no effect, 100 complete control)
[16] = 125 g ai/ha, scale 0 to 100 (0 no effect, 100 complete control)
[17] = 250 g ai/ha, scale of 0 to 100, 0 is no effect, 100 is complete control
[18] = scale 0 to 100 (0 no effect, 100 complete control)

CCNC(=O)c1cccc(NC(=O)c2nn(C(C)(C)C)nc2C)c1 [Compound 392]
Plant response rating, Bermudagrass [1, 13]: 90 | Plant response rating (0 = no effect, 100 = complete control), Bermudagrass [1]: 90 | Plant response rating, Bermudagrass ([1]; 250 g ai/ha, scale 0-100): 95 | Plant response rating, Bermudagrass [1, 14]: 95 | Plant response rating, Cocklebur ([2]; 62 g ai/ha, scale 0 to 100): 0 | Plant response rating (0 = no effect, 100 = complete control), Cocklebur [2]: 5 | Plant response rating, Cocklebur ([2]; 250 g ai/ha, scale 0-100): 20 | Plant response rating, Cocklebur [2, 14]: 80 | Plant response rating, Corn ([3]; 62 g ai/ha, scale 0 to 100): 30 | Plant response rating (0 = no effect, 100 = complete control), Corn [3]: 50 | Plant response rating, Corn ([3]; 250 g ai/ha, scale 0-100): 80 | Plant response rating, Corn [3, 14]: 90 | Plant response rating, Cupgrass, Woolly ([4]; 62 g ai/ha, scale 0 to 100): 30 | Plant response rating (0 = no effect, 100 = complete control), Cupgrass, Woolly [4]: 40 | Plant response rating, Cupgrass, Woolly ([4]; 250 g ai/ha, scale 0-100): 60 | Plant response rating, Cupgrass, Woolly [4, 14]: 85 | Plant response rating, Foxtail, Giant ([5]; 62 g ai/ha, scale 0 to 100): 65 | Plant response rating (0 = no effect, 100 = complete control), Foxtail, Giant [5]: 90 | Plant response rating, Foxtail, Giant ([5]; 250 g ai/ha, scale 0-100): 100 | Plant response rating, Foxtail, Giant [5, 14]: 100 | Plant response rating, Goosegrass ([6]; 62 g ai/ha, scale 0 to 100): 85 | Plant response rating (0 = no effect, 100 = complete control), Goosegrass [6]: 95 | Plant response rating, Goosegrass ([6]; 250 g ai/ha, scale 0-100): 95 | Plant response rating, Goosegrass [6, 14]: 98 | Plant response rating, Kochia ([7]; 62 g ai/ha, scale 0 to 100): 75 | Plant response rating (0 = no effect, 100 = complete control), Kochia [7]: 80 | Plant response rating, Kochia ([7]; 250 g ai/ha, scale 0-100): 100 | Plant response rating, Kochia [7, 14]: 100 | Plant response rating, Morningglory ([8]; 62 g ai/ha, scale 0 to 100): 70 | Plant response rating (0 = no effect, 100 = complete control), Morningglory [8]: 95 | Plant response rating, Morningglory ([8]; 250 g ai/ha, scale 0-100): 100 | Plant response rating, Morningglory [8, 14]: 100 | Plant response rating, Nutsedge, Yellow ([9]; 62 g ai/ha, scale 0 to 100): 0 | Plant response rating (0 = no effect, 100 = complete control), Nutsedge, Yellow [9]: 10 | Plant response rating, Nutsedge, Yellow ([9]; 250 g ai/ha, scale 0-100): 30 | Plant response rating, Nutsedge, Yellow [9, 14]: 90 | Plant response rating, Soybean ([10]; 62 g ai/ha, scale 0 to 100): 5 | Plant response rating (0 = no effect, 100 = complete control), Soybean [10]: 80 | Plant response rating, Soybean ([10]; 250 g ai/ha, scale 0-100): 90 | Plant response rating, Soybean [10, 14]: 95 | Plant response rating, Velvetleaf ([11]; 62 g ai/ha, scale 0 to 100): 70 | Plant response rating (0 = no effect, 100 = complete control), Velvetleaf [11]: 100 | Plant response rating, Velvetleaf ([11]; 250 g ai/ha, scale 0-100): 100 | Plant response rating, Velvetleaf [11, 14]: 100 | Barnyardgrass plant response rating [12, 15]: 15 | Barnyardgrass plant response rating [12, 16]: 45 | Barnyardgrass plant response rating [12, 17]: 80 | Plant response rating, Barnyardgrass [12, 18]: 90

CCc1nn(C(C)(C)C)nc1C(=O)Nc1cccc(C(=S)N(C)C)c1 [Compound 395]
Plant response rating, Bermudagrass [1, 13]: 95 | Plant response rating (0 = no effect, 100 = complete control), Bermudagrass [1]: 100 | Plant response rating, Bermudagrass ([1]; 250 g ai/ha, scale 0-100): 100 | Plant response rating, Bermudagrass [1, 14]: 100 | Plant response rating, Cocklebur ([2]; 62 g ai/ha, scale 0 to 100): 0 | Plant response rating (0 = no effect, 100 = complete control), Cocklebur [2]: 15 | Plant response rating, Cocklebur ([2]; 250 g ai/ha, scale 0-100): 80 | Plant response rating, Cocklebur [2, 14]: 85 | Plant response rating, Corn ([3]; 62 g ai/ha, scale 0 to 100): 0 | Plant response rating (0 = no effect, 100 = complete control), Corn [3]: 45 | Plant response rating, Corn ([3]; 250 g ai/ha, scale 0-100): 85 | Plant response rating, Corn [3, 14]: 90 | Plant response rating, Cupgrass, Woolly ([4]; 62 g ai/ha, scale 0 to 100): 85 | Plant response rating (0 = no effect, 100 = complete control), Cupgrass, Woolly [4]: 95 | Plant response rating, Cupgrass, Woolly ([4]; 250 g ai/ha, scale 0-100): 100 | Plant response rating, Cupgrass, Woolly [4, 14]: 100 | Plant response rating, Foxtail, Giant ([5]; 62 g ai/ha, scale 0 to 100): 95 | Plant response rating (0 = no effect, 100 = complete control), Foxtail, Giant [5]: 100 | Plant response rating, Foxtail, Giant ([5]; 250 g ai/ha, scale 0-100): 100 | Plant response rating, Foxtail, Giant [5, 14]: 100 | Plant response rating, Goosegrass ([6]; 62 g ai/ha, scale 0 to 100): 95 | Plant response rating (0 = no effect, 100 = complete control), Goosegrass [6]: 95 | Plant response rating, Goosegrass ([6]; 250 g ai/ha, scale 0-100): 100 | Plant response rating, Goosegrass [6, 14]: 100 | Plant response rating, Kochia ([7]; 62 g ai/ha, scale 0 to 100): 100 | Plant response rating (0 = no effect, 100 = complete control), Kochia [7]: 100 | Plant response rating, Kochia ([7]; 250 g ai/ha, scale 0-100): 100 | Plant response rating, Kochia [7, 14]: 100 | Plant response rating, Morningglory ([8]; 62 g ai/ha, scale 0 to 100): 15 | Plant response rating (0 = no effect, 100 = complete control), Morningglory [8]: 80 | Plant response rating, Morningglory ([8]; 250 g ai/ha, scale 0-100): 100 | Plant response rating, Morningglory [8, 14]: 100 | Plant response rating, Nutsedge, Yellow ([9]; 62 g ai/ha, scale 0 to 100): 15 | Plant response rating (0 = no effect, 100 = complete control), Nutsedge, Yellow [9]: 55 | Plant response rating, Nutsedge, Yellow ([9]; 250 g ai/ha, scale 0-100): 80 | Plant response rating, Nutsedge, Yellow [9, 14]: 90 | Plant response rating, Soybean ([10]; 62 g ai/ha, scale 0 to 100): 75 | Plant response rating (0 = no effect, 100 = complete control), Soybean [10]: 85 | Plant response rating, Soybean ([10]; 250 g ai/ha, scale 0-100): 100 | Plant response rating, Soybean [10, 14]: 100 | Plant response rating, Velvetleaf ([11]; 62 g ai/ha, scale 0 to 100): 95 | Plant response rating (0 = no effect, 100 = complete control), Velvetleaf [11]: 100 | Plant response rating, Velvetleaf ([11]; 250 g ai/ha, scale 0-100): 100 | Plant response rating, Velvetleaf [11, 14]: 100 | Barnyardgrass plant response rating [12, 15]: 75 | Barnyardgrass plant response rating [12, 16]: 80 | Barnyardgrass plant response rating [12, 17]: 80 | Plant response rating, Barnyardgrass [12, 18]: 90
